Results published in paper PMC6429710, “Structure–activity relationships in a series of antiplasmodial thieno[2,3-b]pyridines” (Malaria Journal, 2019).
Converted amounts (≈) assume the structure as drawn. Where two headings read alike, the source gives them in different places.

Assays:
[1] = tested on: asexual erythrocytic stages of transgenic NF54-luc P. falciparum; test: Luciferase-based viability screening for antiplasmodial activity; assay type: cell-based, Plasmodium falciparum; details: for % inhibition ± SD, PfNF54-Luc at 3 µM: 3 µM test compound, luciferase readout; for IC50: read-out: IC50 [µM], PfNF54-Luc
Method: For the luciferase-based viability assays, asexual erythrocytic stages of transgenic NF54-luc P. falciparum were used. These parasites constitutively express high luciferase levels. The parasites were cultured as described previously. Parasite cultures with parasitaemia of 0.5–1% were dispensed in triplicate into white 96-well flat-bottom plates (each well contains 250 µL) (NUNC, Roskilde, Denmark) and incubated in the presence of 3 µM test compounds for 48 h (37 °C, 90% N2, 5% CO2, and 5% O2). 0.01% DMSO was included in the untreated infected RBC cultures as negative control, since the compounds stock initially was diluted in DMSO and each treatment well also contained 0.01% DMSO. Subsequently, 100 µL RPMI1640 media was removed from each well and a 100 µL volume of the Bright-Glo® substrate solution was added to each well. The resultant cleavage product of the reaction, light, was measured using a […] luminometer (Thermo), to ascertain viable parasites. Untreated cultures were used as negative controls and to calculate the inhibition rate (0% inhibition of parasite growth). Experiments were performed in triplicate and were repeated as a whole at least twice. Blasticidin (Sigma-Aldrich, St. Louis, MO, USA), used for selection of transfected parasites, was included as a positive control on each plate and gave > 90% inhibition of parasite growth at concentration 2 µg/mL. […] For active compounds IC50 values were determined from dose–response curves. Calculation of parasite growth inhibition, of the IC50 values and statistical analysis were carried out using GraphPad Prism Version 6.0b (GraphPad Software, Inc. San Diego, CA).

HsGSK-3 = HsGSK-3 (Homo sapiens, UniProt P49841); test: Kinase-Glo Plus assay for inhibition of HsGSK-3; assay type: biochemical; details: 6 µM ATP; mean of three determinations, range in brackets
Method: Kinase reaction mix was transferred to a solid white 384 well plate (NUNC, Thermo Scientific) and kinase reaction was stopped by adding 5 μL RT Kinase-Glo reagent. After 10 min luminescence was measured in an EnVision multilabel plate reader (Perkin Elmer, integration time 0.5 s/well). […] All samples were normalized to a negative control (reaction without kinase). Data points were plotted into Graphpad Prism, normalized to a DMSO control and IC50 values were calculated using nonlinear regression.

PfGSK-3 = molecular target: T1, PfGSK-3 (Plasmodium falciparum, UniProt O77344); test: biochemical; assay type: biochemical; details: for IC50: 6 µM ATP, mean of three determinations, range in brackets, read-out: IC50 [µM], PfGSK-3 (Kinase Glo Plus)
T1 construct: 6xHis; made in house; host or cells: Escherichia coli C41
T1 sequence (O77344 1-440): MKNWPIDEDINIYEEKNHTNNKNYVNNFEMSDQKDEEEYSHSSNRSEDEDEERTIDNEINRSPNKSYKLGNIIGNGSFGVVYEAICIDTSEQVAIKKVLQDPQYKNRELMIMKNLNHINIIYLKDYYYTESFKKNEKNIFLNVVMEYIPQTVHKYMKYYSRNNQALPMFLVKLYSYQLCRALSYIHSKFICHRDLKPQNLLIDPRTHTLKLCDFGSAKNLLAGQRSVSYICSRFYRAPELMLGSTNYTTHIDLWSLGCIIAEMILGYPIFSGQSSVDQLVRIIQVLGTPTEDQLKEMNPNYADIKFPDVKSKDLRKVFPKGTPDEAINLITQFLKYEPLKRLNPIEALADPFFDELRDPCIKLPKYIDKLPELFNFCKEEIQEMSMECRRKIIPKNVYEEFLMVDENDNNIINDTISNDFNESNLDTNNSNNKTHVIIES
Method: PfGSK-3 was cloned into pOPIN F expression vector [41] using ligation independent cloning (InFusion, Takara Clontech). Expression vector was transformed into Escherichia coli C41 and expression of recombinant PfGSK3-6xHis was induced by incubation with 1 mM IPTG at 16 °C overnight.
Kinase activity was measured using Kinase-Glo Plus Luminescent Kinase Assay (Promega). 20 ng recombinant GSK-3 were incubated for 30 min at 30 °C in the presence of 12 μM GS-1 peptide substrate ([…]pSEDEEE, pS stands for phosphorylated serine, Biaffin GmbH & Co KG/proteinkinase.de) and 6 μM ATP (ultra pure, Promega) in a total volume of 5 μL kinase reaction buffer (40 mM Tris/HCl pH 7.5; 20 mM MgCl2; 0.1 mg/mL BSA). Kinase reaction mix was transferred to a solid white 384 well plate (NUNC, Thermo Scientific) and kinase reaction was stopped by adding 5 μL RT Kinase-Glo reagent. After 10 min luminescence was measured in an EnVision multilabel plate reader (Perkin Elmer, integration time 0.5 s/well). […] All samples were normalized to a negative control (reaction without kinase). Data points were plotted into Graphpad Prism, normalized to a DMSO control and IC50 values were calculated using nonlinear regression.

HEK293T cells = test: Cytotoxicity assay on HEK293 cells (PrestoBlue viability); assay type: cell-based, human
Method: HEK293T cells were seeded into a solid black flat bottom 96 well plate (2.5 × 10^4 cells/well) in 200 μL Dulbecco Modified Eagle Medium (DMEM) supplemented with 10% fetal bovine serum and 1% Pen/Strep (final concentration of 100 U/mL Penicillin and 100 μg/mL Streptomycin). Cells were incubated at 37 °C under 5% CO2. After 18 h the supernatant was removed and fresh DMEM containing serial dilutions of compounds was added. Compounds were solubilized in DMSO (final DMSO concentration in HEK293T culture was 0.5%.) Wells containing 0.5% DMSO served as a negative control. Plates were incubated for further 48 h at 37 °C under 5% CO2. To monitor cell viability the supernatant was removed and cells were incubated with 200 μL 10% PrestoBlue (Invitrogen) in PBS at 37 °C. After 30 min fluorescence (λex = 560 nm, λem = 590 nm) was measured in an EnVision multilable plate reader (Perkin Elmer, integration time 0.1 s/well). Data points were plotted into Graphpad Prism, normalized to the DMSO control and IC50 values were calculated using nonlinear regression.

[2] = Kinetic solubility by laser nephelometry; assay type: physicochemical; details: kinetic from dmso stock, aqueous phosphate buffer pH 7.4, 1% DMSO, 25 °C, mean ± standard deviation, read-out: S0 pH 7.4, exp (kinetic solubility)
Method: Kinetic solubility indicates the solubility of the most rapidly precipitating form. Kinetic solubilities of 1 and 4h were determined by laser nephelometry using the […] nephelometer (BMG LabTech, Ortenberg, Germany) and F-bottom transparent 96-well plates. The instrument uses red laser light (635 nm, 80% intensity), which passes through the 96-well plate and which is scattered by turbid suspensions. Each compound was measured six times at 25 °C by preparing three independent stock solutions in concentrations of 5 to 10 mM in DMSO. From each stock solution two independent dilution series were prepared. Based on preliminary experiments, dilution concentrations were chosen such that at least five to six concentrations below and above the expected point of precipitation were recorded. To the 96-well plate containing 198 μL aqueous phosphate buffer at pH 7.4, 2 μL of each dilution sample in DMSO was added and shaken for 10 s. at 700 rpm (double orbital). […] The pH was adjusted by adding sulfuric acid. First, the plates were scanned without content to quantify the background, which was later subtracted from the obtained values of each individual well. As blank, 2 μL of neat DMSO was added to the phosphate buffer. Close to the point of precipitation, particle concentration can be assumed to be proportional to the intensity of scattered light. […]

[3] = tested on: asexual erythrocytic stages of transgenic NF54-luc P. falciparum; design: method as in PMID 23214499; details: prototype compound 1; read-out: IC50 [µM], PfNF54-Luc; cited from earlier work
[4] = from dose-response curves, 48 h

Chain of HsGSK-3 (P49841 whole entry): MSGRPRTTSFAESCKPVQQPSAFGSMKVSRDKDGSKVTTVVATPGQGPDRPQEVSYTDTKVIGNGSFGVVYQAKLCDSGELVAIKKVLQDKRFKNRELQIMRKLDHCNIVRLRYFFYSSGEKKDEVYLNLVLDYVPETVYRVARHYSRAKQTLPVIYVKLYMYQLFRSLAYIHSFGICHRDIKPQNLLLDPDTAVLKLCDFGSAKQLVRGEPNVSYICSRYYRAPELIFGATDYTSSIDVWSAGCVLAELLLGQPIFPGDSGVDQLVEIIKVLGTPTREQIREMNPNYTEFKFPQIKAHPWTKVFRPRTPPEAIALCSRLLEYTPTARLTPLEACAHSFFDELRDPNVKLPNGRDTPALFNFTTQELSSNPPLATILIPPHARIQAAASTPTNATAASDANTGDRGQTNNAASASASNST

Structure (SMILES) | % inhibition ± SD, PfNF54-Luc at 3 µM ([1]; 48 h) | IC50 [1, 4] | further results
N#Cc1c(N)nc2sc(C(=O)c3cccc(Cl)c3)c(N)c2c1-c1ccc(Cl)cc1Cl [2a] | 25.7 ± 3.5% | 6.2 µM | 
N#Cc1c(N)nc2sc(C(=O)c3cccc(Cl)c3)c(N)c2c1-c1ccc(F)cc1Cl [2b] | 28.1 ± 3.3% | 6.1 µM | 
Cc1ccc(-c2c(C#N)c(N)nc3sc(C(=O)c4cccc(Cl)c4)c(N)c23)c(Cl)c1 [2d] | 12.4 ± 2.4% |  | 
N#Cc1c(N)nc2sc(C(=O)c3cccc(Cl)c3)c(N)c2c1-c1ccc(O)cc1Cl [2e] | 0.2 ± 2.5% |  | 
COc1ccc(-c2c(C#N)c(N)nc3sc(C(=O)c4cccc(Cl)c4)c(N)c23)c(Cl)c1 [3a] | 33.2 ± 3.2% | 12.2 µM | 
CCOc1ccc(-c2c(C#N)c(N)nc3sc(C(=O)c4cccc(Cl)c4)c(N)c23)c(Cl)c1 [3b] | 14.5 ± 1.3% |  | 
N#Cc1c(N)nc2sc(C(=O)c3cccc(Cl)c3)c(N)c2c1-c1ccc(OCc2ccccc2)cc1Cl [3c] | 12.8 ± 4.9% |  | 
N#Cc1c(N)nc2sc(C(=O)c3cccc(Cl)c3)c(N)c2c1-c1ccc(OCCO)cc1Cl [3d] | 25.6 ± 3.3% | 20 µM | 
N#Cc1c(N)nc2sc(C(=O)c3cccc(Cl)c3)c(N)c2c1-c1ccc(OCC(O)CO)cc1Cl (centres unmarked) [3f] | 14.7 ± 1.8% |  | 
N#Cc1c(N)nc2sc(C(=O)c3cccc(Cl)c3)c(N)c2c1-c1ccc(OCC(=O)O)cc1Cl [3g] | 31.3 ± 1.1% |  | 
CN(C)c1ccc(-c2c(C#N)c(N)nc3sc(C(=O)c4cccc(Cl)c4)c(N)c23)c(Cl)c1 [4a] | 29.9 ± 5.6% | 5.7 µM | 
N#Cc1c(N)nc2sc(C(=O)c3cccc(Cl)c3)c(N)c2c1-c1ccc(N2CCCC2)cc1Cl [4c] | 33.0 ± 2.4% |  | 
N#Cc1c(N)nc2sc(C(=O)c3cccc(Cl)c3)c(N)c2c1-c1ccc(N2CCCCC2)cc1Cl [4d] | 39.1 ± 1.1% | 5 µM | 
N#Cc1c(N)nc2sc(C(=O)c3cccc(Cl)c3)c(N)c2c1-c1ccc(N2CCOCC2)cc1Cl [4e] | 20.2 ± 4.8% |  | 
CN(CCNC(=O)OC(C)(C)C)c1ccc(-c2c(C#N)c(N)nc3sc(C(=O)c4cccc(Cl)c4)c(N)c23)c(Cl)c1 [4f] | 67.1 ± 2.7% | 2.5 µM | 
CC(C)(C)OC(=O)N1CCN(c2ccc(-c3c(C#N)c(N)nc4sc(C(=O)c5cccc(Cl)c5)c(N)c34)c(Cl)c2)CC1 [4g] | 42.1 ± 2.9% | 3.8 µM | 
CN(CCN)c1ccc(-c2c(C#N)c(N)nc3sc(C(=O)c4cccc(Cl)c4)c(N)c23)c(Cl)c1.Cl [4i] | 8.1 ± 3.3% |  | 
Cl.N#Cc1c(N)nc2sc(C(=O)c3cccc(Cl)c3)c(N)c2c1-c1ccc(N2CCNCC2)cc1Cl [4j] | 75.7 ± 1.5% | 1.5 µM | 
CCN(CC)c1ccc(-c2c(C#N)c(N)nc3sc(C(=O)c4cccc(Cl)c4)c(N)c23)c(Cl)c1 [(+)4b] |  |  | IC50 (HsGSK-3): > 100 µM; IC50 (PfGSK-3): 39.6 µM; inhibition at 3 µM ([1]; Plasmodium falciparum, NF54, 48 h, read-out: % inhibition ± SD, PfNF54-Luc at 3 µM): 73 ± 1.2%; IC50 ([1]; Plasmodium falciparum, NF54, 48 h): 1.1 µM
CCN(CC)c1ccc(-c2c(C#N)c(N)nc3sc(C(=O)c4cccc(Cl)c4)c(N)c23)c(Cl)c1 [(−)4b] |  |  | IC50 (PfGSK-3): > 100 µM
CN(CC[C@H](N)CC(=O)N[C@H]1C=C[C@H](n2ccc(N)nc2=O)O[C@@H]1C(=O)O)C(=N)N [BS, Blasticidin, reference compound] | 99.3 ± 0.7% |  | inhibition of parasite growth (positive control) ([1]; 2 µg/mL, 48 h): > 90%
N#Cc1c(N)nc2sc(C(=O)c3cccc(Cl)c3)c(N)c2c1-c1ccccc1Cl [compound 1] |  |  | IC50 (HsGSK-3): 9.08 µM; IC50 (PfGSK-3): 0.24 µM; selectivity index plasmodial versus human GSK-3 (PfGSK-3; Kinase Glo Plus assay, PfGSK-3 versus HsGSK-3): 38; SI (selectivity index) = IC50 HEK293T/IC50 PfNF54-Luc (HEK293T cells; HEK293T versus PfNF54-Luc): 6.4; IC50 (HEK293T cells; Homo sapiens, HEK-293T, cell viability, 48 h, mean of six determinations, range in brackets): 35.2 µM; solubility kinetic at 10 s [2]: 1.5 ± 0.3 µM (≈ 0.659 µg/mL); IC50 [3]: 5.5 µM
